Assay results as given in patent USRE47689E1, “Compounds for treating spinal muscular atrophy” (PTC Therapeutics, Inc., priority 2011, dated 2019).

Legend:
Type in all cases: in vivo, mouse
[1] = tested on: SMA Δ7 homozygous knockout mice; experiment: Body weight of neonatal Δ7 SMA mice; conditions: IP QD from PND 3, then orally BID until study end, compared to vehicle
Procedure: The change in body weight of neonatal SMA mice is used to determine whether treatment with a test compound improves body weight.
Protocol. SMA Δ7 homozygous knockout mice are dosed intraperitoneally (IP) with test compound or vehicle (100% DMSO) once per day (QD) from postnatal day (PND) 3 until the dose regimen is switched to an oral dose twice per day (BID) in 0.5% hydroxypropylmethyl cellulose (HPMC) with 0.1% Tween-80 at a dose 3.16-fold higher than the dose used for IP. Body weights of SMA Δ7 mice treated with test compound or vehicle and age matched heterozygous mice are recorded every day.

[2] = tested on: SMA Δ7 homozygous knockout mice; experiment: Survival of neonatal Δ7 SMA mice; conditions: IP QD from PND 3, then orally BID until study end, compared to vehicle
Procedure: The change in the number of surviving mice over time is used to determine whether treatment with a test compound improves survival.
Protocol. SMA Δ7 homozygous knockout mice are dosed intraperitoneally (IP) with test compound or vehicle (100% DMSO) once per day (QD) from postnatal day (PND) 3 until the dose regimen is switched to an oral dose twice per day (BID) in 0.5% hydroxypropylmethyl cellulose (HPMC) with 0.1% Tween-80 at a dose 3.16-fold higher than the dose used for IP. The number of surviving mice in each group is recorded every day and plotted as a percent of total number of mice. Tissues of SMA Δ7 and age-matched heterozygous mice are collected for the measurement of Smn protein levels and processed as detailed in Example 10. The total protein normalized Smn protein levels measured in the tissues are plotted as a percent of those in the age-matched heterozygous mice tissues, with the heterozygous levels represented as 100 percent. The level of Smn protein in the test compound treated mice tissue relative to that in heterozygous mice tissue is indicated as a percent value above each bar in the graph.

[3] = tested on: full length and Δ7 SMN2 mRNAs; experiment: SMN2 mRNA RT-qPCR splicing assay in animal tissues; conditions: C/C-allele SMA mice, brain and muscle, 10 mg/kg oral gavage twice per day for 10 days
Procedure: The reverse transcription-quantitative PCR-based (RT-qPCR) assay is used to quantify the levels of the full length and Δ7 SMN2 mRNAs in tissues from mice treated with test compound.
Protocol. C/C-allele SMA mice are treated by oral gavage two times per day for 10 days with test compounds resuspended in 0.5% HPMC and 0.1% Tween-80. Tissue samples were collected and snap frozen for RNA purification.
Tissue samples (20-40 mg) are homogenized in QIAzol Lysis Reagent for 2 minutes at 20 Hz in the TissueLyser II using one stainless steel bead. After addition of chloroform, the homogenate is separated into aqueous and organic phases by centrifugation. RNA partitioned to the upper, aqueous phase is extracted and ethanol is added to provide appropriate binding conditions. The sample is then applied to the RNeasy spin column from the RNeasy Mini Kit, where total RNA binds to the membrane. The RNA is eluted in RNase-free water then stored at −20° C. and subsequently analyzed using the TaqMan RT-qPCR on the 7900HT Thermocycler. Total RNA is diluted ten fold and 2.5 μL of the diluted sample is added to the TaqMan RT-qPCR mixture.
SMN2 spliced products are identified using the following primers and probes in Table 7. Primer SMN FL Forward B (SEQ ID NO. 7) hybridizes to a nucleotide sequence in exons 7 and 8, primer SMN Δ7 Forward B (SEQ ID NO. 8) hybridizes to a nucleotide sequence in exons 6 and 8, primer SMN Reverse B (SEQ ID NO. 9) hybridizes to a nucleotide sequence in exon 8, probe SMN Probe B (SEQ ID NO. 10) hybridizes to a nucleotide sequence in exon 8. These primers and probe hybridize to nucleotide sequences common to human SMN1 and SMN2 mRNAs. Since the SMA patient cells used in Example 5 contain only the SMN2 gene, RT-qPCR can quantify only SMN2 full-length and Δ7 mRNAs.
The SMN forward and reverse primers are used at final concentrations of 0.4 μM. The SMN probe is used at a final concentration of 0.15 μM. The SMN-GAPDH Mix (10 μL total volume) is prepared by combining 5 μL of 2×RT-PCR buffer, 0.4 μL of 25×RT-PCR enzyme mix, 0.5 μL of 20×GAPDH primer-probe mix, 1.505 μL of water, 2.5 μL of RNA solution, 0.04 μL of 100 μM forward primer, 0.04 μL of 100 μM reverse primer, and 0.015 μL of 100 μM SMN probe. […]
The increase of SMN2 FL and decrease in SMN2 Δ7 mRNAs relative to those in tissues from animals treated with vehicle control are determined from real-time PCR data using a modified ΔΔCt method (as described in Livak and Schmittgen, Methods, 2001, 25:402-8). The amplification efficiency E is calculated from the slope of the amplification curve for SMN2 FL, SMN2 Δ7, and GAPDH individually. The abundances of SMN2 FL, SMN2 Δ7, and GAPDH are then calculated as (1+E)^−Ct, where Ct is the threshold value for each amplicon. […]

SMILES	body weight [1]	survival [2]	SMN2 FL mRNA relative to vehicle [3]	SMN2 Δ7 mRNA relative to vehicle [3]
CC(C)NCCc1ccc2cc(-c3nc4c(Cl)cccc4s3)c(=O)oc2c1 [Cpd 35, 3-(4-chloro-1,3-benzothiazol-2-yl)-7-[2-(propan-2-ylamino)ethyl]-2H-chromen-2-one]	improved compared to vehicle treated mice	improved compared to vehicle treated mice	substantially more SMN2 FL mRNA	less SMN2 Δ7 mRNA
CCN1CCN(c2ccc3cc(-c4cn5cc(C)nc(C)c5n4)c(=O)oc3c2)C[C@@H]1C [Cpd 626, 3-(6,8-dimethylimidazo[1,2-a]pyrazin-2-yl)-7-[(3S)-4-ethyl-3-methylpiperazin-1-yl]-2H-chromen-2-one]	improved compared to vehicle treated mice	improved compared to vehicle treated mice	substantially more SMN2 FL mRNA	less SMN2 Δ7 mRNA
